Data reported in patent US20230096766A1, “AMINO ACID HAVING FUNCTIONAL GROUP CAPABLE OF INTERMOLECULAR HYDROGEN BONDING, PEPTIDE COMPOUND CONTAINING SAME AND METHOD FOR PRODUCTION THEREOF” (Chugai Seiyaku Kabushiki Kaisha, priority 2018, published 2023).
*1 amine or outer side, *2 acyl side, *3 side chain or, on linkers, in order; H or OH if unused. Where a SMILES comes first, the peptide text is derived from it. Bridges are numbered along the chain shown (N, C = ends). [ ]: non-standard residue; d: D form. The star is where a group is joined. ξ: configuration not given here. NMeHph(3-OMe-4-CONHMe) = CNC(=O)c1ccc(CC[C@H](NC)C(=O)O)cc1OC; X15 = CCCCN(CC(=O)C(C)[C@@H](CC(C)C)C(=O)[*:2])[*:1]; X5 = O=C([C@H](CCC[C@@H]1CC(F)(F)CN1)N[*:1])[*:2]; CH2(1,2,4-oxadiazolon-3-yl) = O=c1[nH]c(C*)no1; X13 = O=C(C1CCCCC1)[C@H](CC(=O)[*:2])N[*:1]; Pro(4,4-F2)ψ(CH2) = FC1(F)CN[C@H](C*)C1; X9 = O=C([C@@H](CN[*:1])COCCO)[*:2]; Propyl(2,2-Me2,3-OH) = CC(C)(CO)C*; NMeF = CN[C@@H](Cc1ccccc1)C(=O)O; CH2CH(OH)CF3 = OC(C*)C(F)(F)F; NMeL = CN[C@@H](CC(C)C)C(=O)O; NMeV = CN[C@H](C(=O)O)C(C)C; NMeAbu = CC[C@H](NC)C(=O)O; NMeA = CN[C@@H](C)C(=O)O; Piperidide = C1CCN(*)CC1; dAbu = CC[C@@H](N)C(=O)O; dNMeA = CN[C@H](C)C(=O)O; NBuGly = CCCCNCC(=O)O; NPrGly = CCCNCC(=O)O; ξNMeA = CNC(C)C(=O)O; ξS = NC(CO)C(=O)O; Sar = CNCC(=O)O; tBu = CC(C)(C)*

Assay: Membrane permeability test of cyclic peptides (Caco-2, modified/improved method of WO 2018/124162)
Settings: human, Caco-2, Caco-2 (cm/sec), Table 36; Papp; sequences having Papp ≥ 1.0 × 10^−6 at ARC = 3
With CC[C@H](C)[C@@H]1NC(=O)[C@H](CC(C)C)N(C)C(=O)[C@H](C)N(C)C(=O)[C@H]([C@@H](C)O)NC(=O)[C@H](Cc2ccccc2)N(C)C(=O)[C@H](C)N(C)C(=O)[C@@H](C)N(C)C(=O)C[C@@H](C(=O)N(C)[C@@H](Cc2ccccc2)C(=O)N(C)[C@@H](Cc2ccccc2)C(=O)N[C@@H](C)C(=O)N2CCCCC2)NC(=O)[C@H](C(C)C)N(C)C(=O)[C@H](CC(C)C)N(C)C1=O [pd201] ([dNMeA][NMeA][NMeF]T[NMeA][NMeL]I[NMeL][NMeV]D[NMeF][NMeF]A-Piperidide; lactam N-10) the Papp was 2.3 ×10⁻⁶ cm/s.

Same assay, conditions: human, Caco-2, Caco-2 (cm/sec), membrane permeability of cyclic peptides, Caco-2
With CC(C)C[C@@H]1NC(=O)[C@H](Cc2ccccc2)N(C)C(=O)[C@H](CC(C)C)N(C)C(=O)[C@H](COCC(C)(C)CO)NC(=O)[C@H](CC(C)C)N(C)C(=O)C[C@@H](C(=O)N2CCCCC2)NC(=O)[C@H](CC(C)C)N(C)C(=O)CN(C)C(=O)[C@H]([C@@H](C)O)NC(=O)[C@H](CC(C)C)N(C)C(=O)[C@H](Cc2ccccc2)N(C)C1=O [AP125] ([NMeL]S(Propyl(2,2-Me2,3-OH))[NMeL][NMeF]L[NMeF][NMeL]T[Sar][NMeL]D-Piperidide; lactam N-11) the Papp was 0.74 ×10⁻⁶ cm/s.
CCCCN1CC(=O)N(C)[C@@H](CC(C)C)C(=O)N[C@H](C(=O)N2CCCCC2)CC(=O)N(C)[C@@H](CC(C)C)C(=O)NC(COCc2noc(=O)[nH]2)C(=O)N(C)[C@@H](CC(C)C)C(=O)N(C)[C@@H](CC(C)C)C(=O)N[C@@H](C(C)C)C(=O)N(C)[C@@H](Cc2ccccc2)C(=O)N(C)[C@@H](CC(C)C)C(=O)N[C@@H]([C@@H](C)O)C1=O (stereo partly drawn) [AP48] ([NMeL][ξS](CH2(1,2,4-oxadiazolon-3-yl))[NMeL][NMeL]V[NMeF][NMeL]T[NBuGly][NMeL]D-Piperidide; lactam N-11) showed a Papp of 0.4 ×10⁻⁶ cm/s.
In the case of CCCCN1CC(=O)C(C)[C@@H](CC(C)C)C(=O)NC(COCc2noc(=O)[nH]2)C(=O)N(C)[C@@H](Cc2ccccc2)C(=O)N(C)[C@@H](CC(C)C)C(=O)N[C@H](C(=O)N2CCCCC2)CC(=O)N[C@H](CC(C)C)C(=O)N(C)[C@@H](CC(C)C)C(=O)N[C@@H]([C@@H](C)CC)C(=O)N(C)[C@@H](CC(C)C)C(=O)N[C@@H]([C@@H](C)O)C1=O (stereo partly drawn) [AP44] ([dL][NMeL]I[NMeL]T[X15][ξS](CH2(1,2,4-oxadiazolon-3-yl))[NMeF][NMeL]D-Piperidide; lactam N-10), the Papp is reported as 0.3 ×10⁻⁶ cm/s.
For CCCN1CC(=O)N(C)[C@@H](CC(C)C)C(=O)N[C@H](C(=O)N2CCCCC2)CC(=O)N(C)[C@@H](CC(C)C)C(=O)N[C@@H](Cc2ccccc2)C(=O)N(C)[C@@H](CC(C)C)C(=O)N(C)[C@@H](CC(C)C)C(=O)NC[C@@H](COCCO)C(=O)N(C)[C@@H](Cc2ccccc2)C(=O)N(C)[C@@H](CC(C)C)C(=O)N[C@@H]([C@@H](C)O)C1=O [AP132] ([NMeL]F[NMeL][NMeL][X9][NMeF][NMeL]T[NPrGly][NMeL]D-Piperidide; lactam N-11), the Papp was 1.3 ×10⁻⁶ cm/s.
CNC(=O)c1ccc(CC[C@H]2C(=O)N[C@@H](CC(C)C)C(=O)N(C)[C@@H](CC(C)C)C(=O)N[C@@H]([C@@H](C)O)C(=O)N(C)CC(=O)N(C)[C@@H](CC(C)C)C(=O)N[C@@H](CC(C)C)C(=O)N(C)[C@@H](Cc3ccccc3)C(=O)N(C)[C@@H](CC(C)C)C(=O)N[C@H](C(=O)N3CCCCC3)CC(=O)N[C@H](C(C)C)C(=O)N2C)cc1OC [AP224] ([dV][NMeHph(3-OMe-4-CONHMe)]L[NMeL]T[Sar][NMeL]L[NMeF][NMeL]D-Piperidide; lactam N-11) gave a Papp of 1.1 ×10⁻⁶ cm/s.

Same assay, conditions: human, Caco-2, Caco-2 (membrane permeability), Table 6, cyclic peptides containing Ser(1-CF3-EtOH) (C) or Hnl(7-F3-6-OH) (D)
Work on CC(C)C[C@H]1C(=O)N[C@@H](COC(C)(C)C)C(=O)N(C)[C@@H](Cc2ccccc2)C(=O)N(C)[C@@H](CC(C)C)C(=O)N[C@H](C(=O)C2CCCCC2)CC(=O)N[C@H](C(C)C)C(=O)N(C)[C@@H](Cc2ccccc2)C(=O)N[C@@H](COCC(O)C(F)(F)F)C(=O)N(C)[C@@H](CC(C)C)C(=O)N[C@@H](C(C)C)C(=O)N(C)CC(=O)N1C (stereo partly shown) [Compound D11] (cyclo([NMeF][NMeL][X13][dV][NMeF]S(CH2CH(OH)CF3)[NMeL]V[Sar][NMeL]S(tBu))) yielded a Papp of 0.21 ×10⁻⁶ cm/s.

Same assay, conditions: human, Caco-2, Caco-2 (membrane permeability), Table 10, cyclic peptides containing Ser(S-4-F2-Pyrro-Me) (G) or Nva(2-R-4-F2-Pyrro) (H)
In the case of CC[C@H]1C(=O)N(C)[C@@H](Cc2ccccc2)C(=O)N[C@@H](CC(C)C)C(=O)N(C)[C@@H](CC(C)C)C(=O)N(C)[C@@H](CC(C)C)C(=O)N[C@@H](COC[C@@H]2CC(F)(F)CN2)C(=O)N(C)CC(=O)N(C)[C@@H](CC(C)C)C(=O)N[C@H](C(=O)N2CCCCC2)CC(=O)N(C)[C@@H](C)C(=O)N[C@@H](CC(C)C)C(=O)N1C [Compound G10] ([NMeA]L[NMeAbu][NMeF]L[NMeL][NMeL]S(Pro(4,4-F2)ψ(CH2))[Sar][NMeL]D-Piperidide; lactam N-11), the Papp is reported as 1.1 ×10⁻⁶ cm/s.
For CC(C)C[C@@H]1NC(=O)[C@H](C)N(C)C(=O)C[C@@H](C(=O)N2CCCCC2)NC(=O)[C@H](CC(C)C)N(C)C(=O)CN(C)C(=O)[C@H](CCC[C@@H]2CC(F)(F)CN2)NC(=O)[C@H](CC(C)C)N(C)C(=O)[C@H](CC(C)C)N(C)C(=O)[C@H](CC(C)C)NC(=O)[C@H](Cc2ccccc2)N(C)C(=O)[C@H](C)N(C)C1=O [Compound H10] ([NMeA]L[NMeA][NMeF]L[NMeL][NMeL][X5][Sar][NMeL]D-Piperidide; lactam N-11), the Papp was 0.43 ×10⁻⁶ cm/s.
In the case of CCCCN1CC(=O)N(C)[C@@H](CC(C)C)C(=O)N[C@H](C(=O)N2CCCCC2)CC(=O)N(C)[C@@H](C)C(=O)N[C@@H](CCC[C@@H]2CC(F)(F)CN2)C(=O)N(C)[C@@H](CC(C)C)C(=O)N(C)[C@@H](C)C(=O)N[C@@H](C(C)C)C(=O)N(C)[C@@H](Cc2ccccc2)C(=O)N(C)[C@@H](CC(C)C)C(=O)N[C@@H]([C@@H](C)O)C1=O [Compound H05] ([NMeA][X5][NMeL][NMeA]V[NMeF][NMeL]T[NBuGly][NMeL]D-Piperidide; lactam N-11), the Papp is reported as 1.2 ×10⁻⁶ cm/s.
With CCCCN1CC(=O)N(C)[C@@H](CC(C)C)C(=O)N[C@@H](CCC[C@@H]2CC(F)(F)CN2)C(=O)N(C)[C@@H](CC(C)C)C(=O)N(C)[C@@H](CC(C)C)C(=O)N[C@H](C(=O)N2CCCCC2)CC(=O)N[C@H](CC)C(=O)N(C)[C@@H](Cc2ccccc2)C(=O)N[C@@H](CC(C)C)C(=O)N(C)[C@@H](CC)C(=O)N[C@@H]([C@@H](C)O)C1=O [Compound H01] ([dAbu][NMeF]L[NMeAbu]T[NBuGly][NMeL][X5][NMeL][NMeL]D-Piperidide; lactam N-11) the Papp was 0.25 ×10⁻⁶ cm/s.
For CCCCN1CC(=O)N(C)[C@@H](Cc2ccccc2)C(=O)N(C)[C@@H](CC(C)C)C(=O)N[C@@H](C(C)C)C(=O)N(C)[C@@H](CC(C)C)C(=O)N[C@H](C(=O)N2CCCCC2)CC(=O)N(C)CC(=O)N(C)[C@@H](CC(C)C)C(=O)N[C@@H](COC[C@@H]2CC(F)(F)CN2)C(=O)N(C)[C@@H](CC(C)C)C(=O)N[C@@H]([C@@H](C)O)C1=O [Compound G06] ([Sar][NMeL]S(Pro(4,4-F2)ψ(CH2))[NMeL]T[NBuGly][NMeF][NMeL]V[NMeL]D-Piperidide; lactam N-11), the Papp was 1.8 ×10⁻⁶ cm/s.
Work on CCCCN1CC(=O)N(C)[C@@H](CC(C)C)C(=O)N[C@H](C(=O)N2CCCCC2)CC(=O)N(C)C(C)C(=O)N[C@@H](COC[C@@H]2CC(F)(F)CN2)C(=O)N(C)[C@@H](CC(C)C)C(=O)N(C)[C@@H](CC)C(=O)N[C@@H](C(C)C)C(=O)N(C)[C@@H](Cc2ccccc2)C(=O)N(C)[C@@H](CC(C)C)C(=O)N[C@@H]([C@@H](C)O)C1=O (stereo partly drawn) [Compound G05] ([ξNMeA]S(Pro(4,4-F2)ψ(CH2))[NMeL][NMeAbu]V[NMeF][NMeL]T[NBuGly][NMeL]D-Piperidide; lactam N-11) yielded a Papp of 3.2 ×10⁻⁶ cm/s.
